The subject of series [1] is D6 (CQ^S) P. falciparum strain. Nature of the series: In vitro fluorescence (Sybr Green I) assay for IC50 against D6 strain. The note with it: Plasmodium falciparum, read-out: IC50-D6. In kind it is cell-based. An excerpt: (§1) This method employs fluorescent detection of the level of parasitemia in cultured red blood cells and can be automated for high-throughput screening of antimalarial RCQs. This exemplary method allows the inhibitory agent (such as a MCQ) to be in contact with the parasite for an entire developmental cycle without purine starvation, which is in contrast to the traditional ^3H-hypoxanthine method (Desjardins et al. 1979. Antimicrob. Agents Chemother. 16(6):710-718, which is incorporated herein by reference in its entirety). Briefly, to perform the Smilkstein et al. method, an initial parasitemia of approximately 0.2% is attained by adding uninfected red blood cells (RBCs) to a stock culture of Plasmodium-infected RBCs. […] After a period of incubation (such as about 72 hours), a sufficient amount (e.g., 100 μL) of a fluorescent DNA binding dye-detergent mixture (e.g., Sybr Green I dye-detergent mixture) to lyse cells and bind to DNA is added to the reactions. Because uninfected RBCs have no DNA, only parasite DNA (in infected RBCs) is available for binding to the fluorescent dye (e.g., Sybr Green I). Samples are then incubated in the dark for a period of time (e.g., one hour), followed by measurement of levels of fluorescence. For Sybr Green 1, excitation and emission wavelength are 485 and 530 nm, respectively. Fluorescence readings, which represent the amount of parasite DNA in the sample, can be plotted against the Log [drug] and fit to a curve by nonlinear regression to obtain the IC50 value for the tested compound.
(§2) An in vitro fluorescence assay for determining IC50 of antimalarial drugs was performed as previously described by Smilkstein et al. (2004. Antimicrob. Agents Chemother. 48(5):1803-1806). This procedure can be automated for high-throughput screening of the antimalarial activities of RCQs described herein. This method also allows the tested agent (e.g., a MCQ) to be in contact with the parasite for an entire developmental cycle without purine starvation (which occurs with the commonly used ^3H-hypoxanthine method; see, e.g., Desjardins et al. 1979. Antimicrob. Agents Chemother. 16, (6):710-7188).
(§3) Briefly, an initial parasitemia of approximately 0.2% was attained by addition of uninfected red blood cells to a stock culture of cells infected with Dd2 (CQ^R), 7G8 (CQ^R), or D6 (CQ^S) P. falciparum strains. A 10 mM solution of a test compound (in DMSO) was prepared. The test compound (at a final concentration from 10^−11 to 10^−4 M) and infected red blood cells (at a final concentration of 2% (v/v)) were mixed in 100 μL samples in individual wells of a 96-well plate. Each sample was prepared in triplicate. A triplicate set of reactions containing CQ (instead of the test compound) was included as a control. After a 72 hour incubation period, Sybr Green I dye-detergent mixture (100 μL) was added to each reaction. The samples were further incubated for an hour in the dark, and then placed in a 96-well fluorescence plate reader (Gemini-EM, […]) and analyzed with excitation and emission wavelength bands at 485 and 530 nm, respectively. Fluorescence readings were plotted against the Log [drug], and curve fitting performed by nonlinear regression to find the IC50 value.

The subject of series [2] is Dd2 (CQ^R) P. falciparum strain. Description: In vitro fluorescence (Sybr Green I) assay for IC50 against Dd2 strain. The following applies: Plasmodium falciparum, read-out: IC50-Dd2. In kind it is cell-based.
Description: as §1, §2, §3

Series [3] has as its system 7G8 (CQ^R) P. falciparum strain. Description: In vitro fluorescence (Sybr Green I) assay for IC50 against 7G8 strain. In kind it is cell-based. The following applies: Plasmodium falciparum, read-out: IC50-7G8.
Description: as §1, §2, §3

The test system of series [4] is mitogen-induced marine spleen lymphocytes. In kind it is cell-based. The note with it: LC50; mouse spleen lymphocytes, 72 hours incubation, then resazurin 24 hours. On the procedure:
Mouse spleen lymphocytes were isolated from C57B1/6J mice by teasing tissues on a metallic sieve screen. […] Two hundred (200) μl isolated cells were then seeded in separate wells of a 96-well flat-bottom tissue culture plate at a density of 2×10^5 cells per well. […] After 72 hours incubation in a humidified atmosphere at 37° C. and 5% CO2, a solution of resazurin PBS was added to a final concentration 10 μM, and the plates were returned to the incubator for another 24 hours. Resazurin is a substrate which changes color in response to metabolic activity (such as that found in living cells). […] LC50 values were determined from plots of florescence versus drug concentration using non-linear regression by Prism software.
Background: The colour change of resazurin is a common sign of viable cells or microbes.

The next series concerns P. falciparum strain D6. The following applies: cited from earlier work. Also: key: S = sensitive; R = resistant; S/R = intermediate level of resistance.
Series [5] concerns P. falciparum strain FCR3. The note with it: cited from earlier work. Also: key: S = sensitive; R = resistant; S/R = intermediate level of resistance.
In the next series the test system is P. falciparum strain W2. The note with it: cited from earlier work. Also: key: S = sensitive; R = resistant; S/R = intermediate level of resistance.
The subject of the next series is P. falciparum strain Dd2. The following applies: cited from earlier work.
In series [6] the test system is P. falciparum strain TM91C235. The following applies: cited from earlier work. Also: key: S = sensitive; R = resistant; S/R = intermediate level of resistance.
[7] abbreviates: Erythrocyte, D6 (CQ^S) strain in infected red blood cells, 72 hour incubation.
Setting [8] is: Erythrocyte, Dd2 (CQ^R) strain in infected red blood cells, 72 hour incubation.
The mark [9] stands for this setting: Erythrocyte, 7G8 (CQ^R) strain in infected red blood cells, 72 hour incubation.

Here are results for 22 compounds from patent US8658648B2, “Modified chloroquines with single ring moiety or fused ring moiety” (DesignMedix, Inc., priority 2008, dated 2014).

Where two headings read alike, the source gives them in different places.
For Drug susceptibility of P. falciparum strain Dd2 in this document: key: S = sensitive; R = resistant; S/R = intermediate level of resistance.

In general, IC50 refers to the midpoint of a concentration-inhibition curve. As to `Clc1ccc2c(NCCN3CCN(c4ccccn4)CC3)ccnc2c1` [7-chloro-N-(2-(4-(pyridin-2-yl)piperazin-1-yl)ethyl)quinolin-4-amine], the IC50 in [1] (setting [7]) came out at 4.57 nM; in series [2] (setting [8]), 3.9 nM; in [3] (setting [9]) it was 12.2 nM.

In the case of `O=[N+]([O-])c1ccc(N2CCN(CCCNc3ccnc4cc(Cl)ccc34)CC2)c([N+](=O)[O-])c1` [7-chloro-N-(3-(4-(2,4-dinitrophenyl)piperazin-1-yl)propyl)quinolin-4-amine], the IC50 in [1] (D6, Erythrocyte, 72 h) worked out at 0.3 nM; in series [2] (DD2, Erythrocyte, 72 h) it was 0.47 nM; in [3] (7G8, Erythrocyte, 72 h), 0.35 nM.

As to `Clc1ccc2c(NCCCN3CCN(c4ccc(Cl)c(Cl)c4)CC3)ccnc2c1` [7-chloro-N-(3-(4-(3,4-dichlorophenyl)piperazin-1-yl)propyl)quinolin-4-amine], the IC50 in series [1] (D6, Erythrocyte, 72 h) turned out to be 0.1 nM; in [2] (DD2, Erythrocyte, 72 h), 0.9 nM; in series [3] (7G8, Erythrocyte, 72 h), 0.28 nM.

As to `O=[N+]([O-])c1cnc(N2CCN(CCCNc3ccnc4cc(Cl)ccc34)CC2)c([N+](=O)[O-])c1` [7-chloro-N-(3-(4-(3,5-dinitropyridin-2-yl)piperazin-1-yl)propyl)quinolin-4-amine], the results for the IC50 in [1] (setting [7]), in [2] (setting [8]) and in [3] (setting [9]) were 0.45 nM, 0.85 nM and 0.9 nM, respectively.

As for `FC(F)(F)c1ccc(N2CCN(CCCNc3ccnc4cc(Cl)ccc34)CC2)cc1` [7-chloro-N-(3-(4-(4-(trifluoromethyl)phenyl)piperazin-1-yl)propyl)quinolin-4-amine], the results for the half-maximal inhibitory concentration (IC50) in [1] (setting [7]), in [2] (setting [8]) and in series [3] (setting [9]) were 0.005 nM, 0.17 nM and 0.2 nM, respectively.

Turning to `Clc1ccc(N2CCN(CCCNc3ccnc4cc(Cl)ccc34)CC2)cc1` [7-chloro-N-(3-(4-(4-chlorophenyl)piperazin-1-yl)propyl)quinolin-4-amine], the IC50 in series [1] (D6, Erythrocyte, 72 h) is 0.005 nM; in [2] (DD2, Erythrocyte, 72 h), 0.33 nM; in [3] (7G8, Erythrocyte, 72 h), 0.09 nM.

For `Fc1ccc(N2CCN(CCCNc3ccnc4cc(Cl)ccc34)CC2)cc1` [7-chloro-N-(3-(4-(4-fluorophenyl)piperazin-1-yl)propyl)quinolin-4-amine], the half-maximal inhibitory concentration (IC50) in series [1] (setting [7]) stood at 0.14 nM; in series [2] (setting [8]), 0.8 nM; in series [3] (setting [9]) it was 0.3 nM.

Regarding `COc1ccc(N2CCN(CCCNc3ccnc4cc(Cl)ccc34)CC2)cc1` [7-chloro-N-(3-(4-(4-methoxyphenyl)piperazin-1-yl)propyl)quinolin-4-amine], the concentration for half-maximal inhibition (IC50) worked out at 0.1 nM in series [1] (setting [7]), 0.48 nM in series [2] (setting [8]) and 0.3 nM in series [3] (setting [9]).

As for `O=[N+]([O-])c1ccc(N2CCN(CCCNc3ccnc4cc(Cl)ccc34)CC2)cc1` [7-chloro-N-(3-(4-(4-nitrophenyl)piperazin-1-yl)propyl)quinolin-4-amine], the IC50 in series [1] (D6, Erythrocyte, 72 h) was 0.8 nM; in series [2] (DD2, Erythrocyte, 72 h), 1.14 nM; in series [3] (7G8, Erythrocyte, 72 h), 0.4 nM.

For `FC(F)(F)c1ccc(N2CCN(CCCNc3ccnc4cc(Cl)ccc34)CC2)nc1` [7-chloro-N-(3-(4-(5-(trifluoromethyl)pyridin-2-yl)piperazin-1-yl)propyl)quinolin-4-amine], the IC50 amounted to 0.5 nM in [1] (setting [7]), 0.83 nM in series [2] (setting [8]) and 1 nM in series [3] (setting [9]).

For `O=[N+]([O-])c1ccc(N2CCN(CCCNc3ccnc4cc(Cl)ccc34)CC2)nc1` [7-chloro-N-(3-(4-(5-nitropyridin-2-yl)piperazin-1-yl)propyl)quinolin-4-amine], the IC50 in series [1] (setting [7]) came out at 0.26 nM; in [2] (setting [8]) it was 0.48 nM; in [3] (setting [9]), 0.45 nM.

Take `Clc1ccc2c(NCCCN3CCN(c4cccnc4)CC3)ccnc2c1` [7-chloro-N-(3-(4-(pyridin-3-yl)piperazin-1-yl)propyl)quinolin-4-amine]: the IC50 in [1] (setting [7]) was determined as 2.07 nM; in series [2] (setting [8]), 1.1 nM; in series [3] (setting [9]), 2.9 nM.

With `Clc1ccc2c(NCCCN3CCN(c4ccncc4)CC3)ccnc2c1` [7-chloro-N-(3-(4-(pyridin-4-yl)piperazin-1-yl)propyl)quinolin-4-amine], the IC50 in series [1] (setting [7]) stood at 2.07 nM; in series [2] (setting [8]) it was 2 nM; in [3] (setting [9]), 6.8 nM.

As to `Clc1ccc2c(NCCCN3CCN(c4ncccn4)CC3)ccnc2c1` [7-chloro-N-(3-(4-(pyrimidin-2-yl)piperazin-1-yl)propyl)quinolin-4-amine], the IC50 in series [1] (setting [7]) is 1.3 nM; in series [2] (setting [8]), 1 nM; in series [3] (setting [9]) it was 3.3 nM.

As for `Cc1ccc(N2CCN(CCCNc3ccnc4cc(Cl)ccc34)CC2)cc1` [7-chloro-N-(3-(4-p-tolylpiperazin-1-yl)propyl)quinolin-4-amine], the figures for the half-maximal inhibitory concentration (IC50) in series [1] (setting [7]), in series [2] (setting [8]) and in [3] (setting [9]) were 0.11 nM, 0.86 nM and 0.3 nM, respectively.

Turning to `Clc1ccc2c(NCCCN3CCN(c4ccccc4)CC3)ccnc2c1` [7-chloro-N-(3-(4-phenylpiperazin-1-yl)propyl)quinolin-4-amine], the IC50 in series [1] (D6, Erythrocyte, 72 h) was under 2.5 nM; in series [2] (DD2, Erythrocyte, 72 h) it was under 2.5 nM. Further, the Cytotoxicity in series [4] is 6400 nM.

Regarding `CC1(C)N=C(N)N=C(N)N1c1ccc(Cl)cc1` [Cycloguanil], the “Drug susceptibility of P. falciparum strain D6” value in the series on P. falciparum strain D6 was “S”. In series [5], the “Drug susceptibility of P. falciparum strain FCR3” value is given as “S”. In addition, the “Drug susceptibility of P. falciparum strain W2” value with P. falciparum strain W2 is reported as “R”. For the same compound, the “Drug susceptibility of P. falciparum strain Dd2” value in the series with P. falciparum strain Dd2 is given as “S”.

For `OC(c1cc(C(F)(F)F)nc2c(C(F)(F)F)cccc12)C1CCCCN1` (stereo not shown) [Mefloquine], the “Drug susceptibility of P. falciparum strain D6” value in the series with P. falciparum strain D6 is “S/R”. For the same compound, the “Drug susceptibility of P. falciparum strain FCR3” value in series [5] is on record as “S”. In addition, the “Drug susceptibility of P. falciparum strain W2” value with P. falciparum strain W2 is “S”. Also, the “Drug susceptibility of P. falciparum strain Dd2” value in the series with P. falciparum strain Dd2 is “R”. Moreover, in [6], the “Drug susceptibility of P. falciparum strain TM91C235” value was “R”.

On to `Nc1ccc(N2CCN(CCCNc3ccnc4cc(Cl)ccc34)CC2)cc1` [N-(3-(4-(4-aminophenyl)piperazin-1-yl)propyl)-7-chloroquinolin-4-amine], for which the half-maximal inhibitory concentration (IC50) in series [1] (D6, Erythrocyte, 72 h) stood at 1.8 nM; in [2] (DD2, Erythrocyte, 72 h) it was 3.16 nM; in [3] (7G8, Erythrocyte, 72 h), 3.2 nM.

For `Clc1ccc2c(NCCCN3CCN(c4ccccc4-c4ccccc4)CC3)ccnc2c1` [N-(3-(4-(biphenyl-2-yl)piperazin-1-yl)propyl)-7-chloroquinolin-4-amine], the half-inhibitory concentration (IC50) is 1.2 nM in series [1] (D6, Erythrocyte, 72 h) and 2.6 nM in series [2] (DD2, Erythrocyte, 72 h). Further, the Cytotoxicity in [4] stood at 1700 nM.

Turning to `Clc1ccc2c(NCCCN3CCN(c4cccc(-c5ccccc5)c4)CC3)ccnc2c1` [N-(3-(4-(biphenyl-3-yl)piperazin-1-yl)propyl)-7-chloroquinolin-4-amine], the half-inhibitory concentration (IC50) in series [1] (D6, Erythrocyte, 72 h) was 0.94 nM; in series [2] (DD2, Erythrocyte, 72 h), 1.8 nM. For the same compound, the Cytotoxicity in series [4] turned out to be 2100 nM.

On to `Clc1ccc2c(NCCCN3CCN(c4ccc(-c5ccccc5)cc4)CC3)ccnc2c1` [N-(3-(4-(biphenyl-4-yl)piperazin-1-yl)propyl)-7-chloroquinolin-4-amine], for which the IC50 in series [1] (D6, Erythrocyte, 72 h) worked out at 0.1 nM; in [2] (DD2, Erythrocyte, 72 h) it was 0.36 nM; in series [3] (7G8, Erythrocyte, 72 h) it was 0.13 nM. The compound also yielded a Cytotoxicity in [4] of 2200 nM.
